ChEMBL document CHEMBL1128330, “Anti-human immunodeficiency virus and anti-hepatitis-B virus activities and toxicities of the enantiomers of 2'-deoxy-3'-oxa-4'-thiocytidine and their 5-fluoro analogues in vitro” (J Med Chem, 1995)

Tests used:
Details in all cases: Homo sapiens
U-937 [1] = assay: Cytotoxic concentration against HIV-1 infected U937 cell lines; assay type: functional
CCRF-CEM [2] = assay: Inhibitory concentration against HIV-1 infected CEM cell lines; assay type: functional, cell-based
H9 [3] = assay: Cytotoxic concentration against HIV-1 infected H9 cell lines; assay type: functional
U-937 [4] = assay: Inhibitory concentration against HIV-1 infected U937 cell lines; assay type: functional, cell-based
CCRF-CEM [5] = assay: Cytotoxic concentration against HIV-1 infected CEM cell lines; assay type: functional
Jurkat [6] = assay: Inhibitory concentration against HIV-1 infected Jurkat cell lines; assay type: functional, cell-based
Jurkat [7] = assay: Cytotoxic concentration against HIV-1 infected Jurkat cell lines; assay type: functional
MT4 [8] = assay: Cytotoxic concentration against HIV-1 infected MT-4 cell lines; assay type: functional
[9] = Drug concentration which inhibits 50% of growth of cord blood mononuclear cells (CBMCs); assay type: functional
H9 [10] = assay: Inhibitory concentration against HIV-1 infected H9 cell lines; assay type: functional, cell-based
MT4 [11] = assay: Inhibitory concentration against HIV-1 infected MT-4 cell lines; assay type: functional, cell-based

IC50 (CCRF-CEM [2]): 0.01 µM
IC50 (U-937 [4]): 0.04 µM
IC50 (Jurkat [6]): 0.01 µM
IC50 (H9 [10]): 0.07 µM
SMILES: Cc1cn([C@H]2C[C@H](N=[N+]=[N-])[C@@H](CO)O2)c(=O)[nH]c1=O [ZIDOVUDINE]
CC50 (U-937 [1]): 110 µM
CC50 (H9 [3]): 200 µM
CC50 (CCRF-CEM [5]): 500 µM
CC50 (Jurkat [7]): > 500 µM
CC50 (MT4 [8]): 110 µM
CC50 [9]: 45 µM
IC50 (MT4 [11]): 0.005 µM
